In US20250295660A1, “METHODS OF TREATING NF1-MUTANT TUMORS USING LSD1 INHIBITORS” (ORYZON GENOMICS, S.A., priority 2022, published 2025):

Legend:
Format in all cases: cell-based
[1] = test system: NCIH510A (SCLC) cell line; experiment: Cell viability of NF1-mutant tumor cell line NCIH510A (MTT or AlamarBlue); conditions: 10 days treatment; for EC50: Homo sapiens, NCI-H510A, 240 h, NF1 p. D2184G/p. L2618L
Experimental: (§1) Mycoplasma-free tumor cell lines from different tumor types carrying mutations in the NF1 gene (see Table 1) were seeded in 50 μl/well of complete medium (as described in Table 2, all reagents from Thermo Fisher) in 96-well plates at the optimal cell density to ensure log-phase growth throughout the duration of the experiment (see Table 2). The day after seeding, 50 μl of medium containing 9 serial dilutions (1:3) of 2×-concentrated iadademstat (LSD1 inhibitor; used as the dihydrochloride salt) were added to the cells to obtain 100 μl of cells treated with 1×-concentrated compound at each dilution. Additionally, the effect of other LSD1 inhibitors, i.e. bomedemstat (bis-tosylate salt) and pulrodemstat (besylate salt), was likewise evaluated in a subset of these tumor cell lines (sNF96.2, sNF02.2, MOLM13 and NCIH510A).
(§2) Each experimental condition was tested in technical triplicates, including medium-only wells and vehicle-treated controls for background correction and normalization, respectively. After treatment, cells were incubated at 37° C. in a humidified and controlled 5% CO2 atmosphere (see Table 2 for duration of treatment according to the growth curve of each cell line and number of cells seeded) and compound and medium refreshment was performed by adding 50 μl of medium supplemented with 1×-concentrated compound at each corresponding dilution when the duration of the treatment exceeded 4 days of drug incubation (see Table 2). After treatment, cell viability was evaluated using either the MTT assay (Sigma-Aldrich) or AlamarBlue™ Cell viability reagent (Life Technologies), following manufacturer's instructions. Background was calculated as the mean of the values of medium-only controls and subtracted from each data point. The average of background-corrected technical triplicates was calculated and normalized by the mean of vehicle-treated controls (corresponding to 100% of viability). Data were analyzed using GraphPad PRISM® version 9.0.1 (GraphPad Software, Inc., La Jolla, CA/USA) to calculate the best-fitting curves and the EC50 values (corresponding to the concentration of compound at which a half (50%) maximal effect is obtained; lower EC50 values thus indicate greater potency).

[2] = test system: MOLM13 (AML) cell line; experiment: Cell viability of NF1-mutant tumor cell line MOLM13 (MTT or AlamarBlue); conditions: 4 days treatment; for EC50: Homo sapiens, MOLM-13, 96 h, NF1 p. E1720D
Experimental: as §1, §2

[3] = test system: sNF02.2 (MPNST) cell line; experiment: Cell viability of NF1-mutant tumor cell line sNF02.2 (MTT or AlamarBlue); conditions: 6 days treatment; for EC50: 144 h, NF1 c. 4868A > T
Experimental: as §1, §2

[4] = test system: NCIH446 (SCLC) cell line; experiment: Cell viability of NF1-mutant tumor cell line NCIH446 (MTT or AlamarBlue); conditions: 10 days treatment
Experimental: as §1
(§3) Each experimental condition was tested in technical triplicates, including medium-only wells and vehicle-treated controls for background correction and normalization, respectively. […] After treatment, cell viability was evaluated using either the MTT assay (Sigma-Aldrich) or AlamarBlue™ Cell viability reagent (Life Technologies), following manufacturer's instructions. Background was calculated as the mean of the values of medium-only controls and subtracted from each data point. […]

[5] = test system: TC71 (Ewing's sarcoma) cell line; experiment: Cell viability of NF1-mutant tumor cell line TC71 (MTT or AlamarBlue); conditions: 6 days treatment
Experimental: as §1, §3

[6] = test system: RD (rhabdomyosarcoma) cell line; experiment: Cell viability of NF1-mutant tumor cell line RD (MTT or AlamarBlue); conditions: 6 days treatment
Experimental: as §1, §3

[7] = test system: sNF96.2 (MPNST) cell line; experiment: Cell viability of NF1-mutant tumor cell line sNF96.2 (MTT or AlamarBlue); conditions: 6 days treatment
Experimental: as §1, §3

[8] = test system: MDAMB231 (TN breast cancer) cell line; experiment: Cell viability of NF1-mutant tumor cell line MDAMB231 (MTT or AlamarBlue); conditions: 4 days treatment
Experimental: as §1, §3

[9] = test system: MOLT4 (ALL) cell line; experiment: Cell viability of NF1-mutant tumor cell line MOLT4 (MTT or AlamarBlue); conditions: 10 days treatment
Experimental: as §1, §3

[10] = test system: A204 (rhabdoid tumor) cell line; experiment: Cell viability of NF1-mutant tumor cell line A204 (MTT or AlamarBlue); conditions: 6 days treatment
Experimental: as §1, §3

[11] = test system: DAUDI (Burkitt's lymphoma) cell line; experiment: Cell viability of NF1-mutant tumor cell line DAUDI (MTT or AlamarBlue); conditions: 4 days treatment
Experimental: as §1, §3

[12] = test system: MHHES1 (Ewing's sarcoma) cell line; experiment: Cell viability of NF1-mutant tumor cell line MHHES1 (MTT or AlamarBlue); conditions: 6 days treatment
Experimental: as §1, §3

[13] = test system: hTERT ipNF95.11b C (plexiform neurofibroma) cell line; experiment: Cell viability of NF1-mutant tumor cell line hTERT ipNF95.11b C (MTT or AlamarBlue); conditions: 7 days treatment
Experimental: as §1, §3

[14] = test system: MPNST-NF1-18b (MPNST) cell line; experiment: Cell viability of NF1-mutant tumor cell line MPNST-NF1-18b (MTT or AlamarBlue); conditions: 6 days treatment
Experimental: as §1, §3

[15] = test system: hTERT ipnNF95.11c (plexiform neurofibroma) cell line; experiment: Cell viability of NF1-mutant tumor cell line hTERT ipnNF95.11c (MTT or AlamarBlue); conditions: 7 days treatment
Experimental: as §1, §3

## CN1CCN(C(=O)[C@H](CCCN[C@@H]2C[C@H]2c2ccc(F)cc2)NC(=O)c2ccc(-n3ccnn3)cc2)CC1 [Bomedemstat, N-[(2S)-5-{[(1R,2S)-2-(4-fluorophenyl)cyclopropyl]amino}-1-(4-methylpiperazin-1-yl)-1-oxopentan-2-yl]-4-(1H-1,2,3-triazol-1-yl)benzamide]
[1]
  EC50: 10.5 nM
[2]
  EC50: 5.38 nM
[3]
  EC50: 0.094 nM

## COc1ccc(-c2c(-c3ccc(C#N)c(F)c3)nc(N3CCC(N)CC3)n(C)c2=O)cc1F [Pulrodemstat, 4-[2-(4-aminopiperidin-1-yl)-5-(3-fluoro-4-methoxyphenyl)-1-methyl-6-oxo-1,6-dihydropyrimidin-4-yl]-2-fluorobenzonitrile]
[1]
  EC50: 1.73 nM
[2]
  EC50: 0.82 nM
[3]
  EC50: 0.166 nM

## N[C@H]1CC[C@H](N[C@@H]2C[C@H]2c2ccccc2)CC1 [Iadademstat, (trans)-N1-((1R,2S)-2-phenylcyclopropyl)cyclohexane-1,4-diamine]
[4]
  Response (classification according to viability reduction): Low (low response (viability reduction<15%))
[5]
  Response (classification according to viability reduction): Low (low response (viability reduction<15%))
[1]
  Response (classification according to viability reduction): Strong (strong response (viability reduction>30%))
  EC50: 0.16 nM
[6]
  Response (classification according to viability reduction): Low (low response (viability reduction<15%))
[7]; 144 h, NF1 c. 3683delC + LOH
  EC50: 0.042 nM
[7]
  Response (classification according to viability reduction): Strong (strong response (viability reduction>30%))
[8]
  Response (classification according to viability reduction): Low (low response (viability reduction<15%))
[9]
  Response (classification according to viability reduction): Strong (strong response (viability reduction>30%))
[9]; Homo sapiens, MOLT-4, 240 h, NF1 p. G1502G/ NS
  EC50: 0.795 nM
[10]
  Response (classification according to viability reduction): Strong (strong response (viability reduction>30%))
[10]; Homo sapiens, 144 h, NF1 p. L1274F
  EC50: 0.1 nM
[11]
  Response (classification according to viability reduction): Low (low response (viability reduction<15%))
[12]
  Response (classification according to viability reduction): Low (low response (viability reduction<15%))
[2]
  Response (classification according to viability reduction): Strong (strong response (viability reduction>30%))
  EC50: 0.158 nM
[13]; 168 h, NF1 c. 1756delACTA/ LOH
  EC50: 0.14 nM
[13]
  Response (classification according to viability reduction): Medium (medium response (viability reduction>15% and <30%))
[14]; 144 h, NF1 SNV at intron 14 + LOH
  EC50: 0.025 nM
[14]
  Response (classification according to viability reduction): Strong (strong response (viability reduction>30%))
[15]; 168 h, NF1 c. 1756delACTA
  EC50: 0.841 nM
[15]
  Response (classification according to viability reduction): Strong (strong response (viability reduction>30%))
[3]
  EC50: 0.02 nM
  Response (classification according to viability reduction): Medium (medium response (viability reduction>15% and <30%))
